Laboratory results published in ChEMBL document CHEMBL1800027, “Imidazolopiperazines: hit to lead optimization of new antimalarial agents” (J Med Chem, 2011).

Key:
[1] = tested on: Plasmodium falciparum; test: Antimalarial activity against Plasmodium falciparum 3D7 infected in human erythrocytes assessed as decrease in parasitemia after 72 hrs; format: functional, organism-based; settings: 3D7, 72 h
[2] = tested on: Plasmodium falciparum; test: Antimalarial activity against Plasmodium falciparum W2 infected in human erythrocytes assessed as decrease in parasitemia after 72 hrs; format: functional, organism-based; settings: W2, 72 h
[3] = in vitro; settings: human
Description: Metabolic stability in human hepatic microsomes assessed as extraction ratio by LC/MS/MS analysis

[4] = in vitro; settings: human, Caco-2
Description: Apparent permeability from apical to basolateral side in human Caco2 cells by LC/MS analysis

[5] = pampa
Description: Permeability of the compound assessed as amount of compound absorbed by PAMPA method

[6] = in vitro; settings: human, Caco-2; remark: listed apart in the source
Description: Apparent permeability from basolateral to apical side in human Caco2 cells by LC/MS analysis

[7] = in vitro; settings: rat
Description: Metabolic stability in rat hepatic microsomes assessed as extraction ratio by LC/MS/MS analysis

[8] = in vitro; settings: mouse
Description: Metabolic stability in mouse hepatic microsomes assessed as extraction ratio by LC/MS/MS analysis

[9] = tested on: Plasmodium berghei; test: Antimalarial activity against GFP-tagged Plasmodium berghei ANKA infected in NMRI mouse assessed as mouse survival at 30 mg/kg, po administered as single dose 24 hrs post infection measured 72 hrs post infection
[10] = Tmax in female CD1 mouse at 30 mg/kg, po by LC/MS/MS analysis; settings: in vivo
[11] = in vivo; settings: female, CD1, mouse, iv, 5 mg/kg
Description: Volume of distribution in female CD1 mouse at 5 mg/kg, iv by LC/MS/MS analysis

[12] = in vivo; settings: female, CD1, mouse, plasma, po, 30 mg/kg
[13] = tested on: Plasmodium berghei; test: Antimalarial activity against GFP-tagged Plasmodium berghei ANKA infected in NMRI mouse assessed as reduction in parasitemia at 30 mg/kg, po QD administered 24 hrs post infection for 3 days measured on day 4 post infection; format: functional; parameters: scale not given: the % may be the effect or the level left
[14] = Cmax in female CD1 mouse at 30 mg/kg, po by LC/MS/MS analysis; settings: in vivo
[15] = molecular target: Voltage-gated inwardly rectifying potassium channel KCNH2 (Homo sapiens, UniProt Q12809)
Sequence of Voltage-gated inwardly rectifying potassium channel KCNH2 (Q12809 whole entry): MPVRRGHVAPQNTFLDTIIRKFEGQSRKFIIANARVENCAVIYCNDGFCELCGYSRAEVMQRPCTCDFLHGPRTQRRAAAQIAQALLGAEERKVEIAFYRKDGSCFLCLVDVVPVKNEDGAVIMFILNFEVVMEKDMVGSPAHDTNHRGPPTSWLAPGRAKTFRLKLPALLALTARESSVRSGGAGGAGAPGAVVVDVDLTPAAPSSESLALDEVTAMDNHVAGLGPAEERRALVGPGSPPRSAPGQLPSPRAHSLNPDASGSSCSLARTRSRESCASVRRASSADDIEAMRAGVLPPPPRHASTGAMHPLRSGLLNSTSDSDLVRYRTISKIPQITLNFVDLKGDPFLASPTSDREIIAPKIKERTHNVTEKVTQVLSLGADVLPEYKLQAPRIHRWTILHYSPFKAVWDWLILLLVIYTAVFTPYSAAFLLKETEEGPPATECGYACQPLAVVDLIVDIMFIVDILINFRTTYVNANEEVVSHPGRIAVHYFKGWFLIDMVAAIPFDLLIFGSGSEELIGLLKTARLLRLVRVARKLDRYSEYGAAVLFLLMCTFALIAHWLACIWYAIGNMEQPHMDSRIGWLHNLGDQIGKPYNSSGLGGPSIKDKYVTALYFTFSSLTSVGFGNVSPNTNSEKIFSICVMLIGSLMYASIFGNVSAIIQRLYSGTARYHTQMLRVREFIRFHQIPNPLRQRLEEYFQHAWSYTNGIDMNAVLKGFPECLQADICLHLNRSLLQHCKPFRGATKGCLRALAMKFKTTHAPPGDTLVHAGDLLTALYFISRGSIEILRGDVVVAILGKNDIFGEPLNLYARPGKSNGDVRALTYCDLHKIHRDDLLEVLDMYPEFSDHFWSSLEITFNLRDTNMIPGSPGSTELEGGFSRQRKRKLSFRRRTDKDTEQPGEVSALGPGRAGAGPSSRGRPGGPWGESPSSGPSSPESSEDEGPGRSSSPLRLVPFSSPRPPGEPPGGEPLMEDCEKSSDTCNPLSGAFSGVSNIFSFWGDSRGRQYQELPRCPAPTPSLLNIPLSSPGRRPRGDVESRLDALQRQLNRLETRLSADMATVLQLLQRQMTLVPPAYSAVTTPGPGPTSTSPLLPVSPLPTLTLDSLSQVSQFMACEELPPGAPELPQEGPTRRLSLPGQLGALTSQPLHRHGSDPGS
Description: Inhibition of human ERG expressed in CHO cells by Q-patch assay

[16] = in vivo; settings: female, CD1, mouse, po, 30 mg/kg
Description: Half life in female CD1 mouse at 20 mg/kg, po by LC/MS/MS analysis

[17] = tested on: Plasmodium berghei; test: Antimalarial activity against GFP-tagged Plasmodium berghei ANKA infected in NMRI mouse assessed as mouse survival at 100 mg/kg, po administered as single dose 24 hrs post infection measured on day 30 post infection
[18] = in vivo; settings: female, CD1, mouse, iv, 5 mg/kg; remark: listed apart in the source
Description: Clearance in female CD1 mouse at 5 mg/kg, iv by LC/MS/MS analysis

[19] = Oral bioavailability in female CD1 mouse at 30 mg/kg by LC/MS/MS analysis; settings: female, CD1, mouse, in vivo
[20] = in vivo; settings: female, CD1, mouse, iv, 5 mg/kg; remark: listed apart in the source
Description: Half-life in female CD1 mouse at 5 mg/kg, iv by LC/MS/MS analysis

[21] = in vivo; settings: female, CD1, mouse, plasma, iv, 5 mg/kg
[22] = tested on: Plasmodium berghei; test: Antimalarial activity against GFP-tagged Plasmodium berghei ANKA infected in NMRI mouse assessed as reduction in parasitemia at 30 mg/kg, po administered as single dose 24 hrs post infection measured 72 hrs post infection; format: functional; parameters: scale not given: the % may be the effect or the level left
[23] = Cytotoxicity against human HuH7 cells; format: cell-based; settings: Huh-7 cells, read-out: TC50 (the source's name)
[24] = Selectivity index, ratio TC50 for human HeLa cells to IC50 for Plasmodium falciparum; format: functional
[25] = Selectivity index, ratio TC50 for human HuH7 cells to IC50 for Plasmodium falciparum; format: functional, Huh-7
[26] = tested on: Plasmodium berghei; test: Antimalarial activity against GFP-tagged Plasmodium berghei ANKA infected in NMRI mouse assessed as mouse survival at 30 mg/kg, po QD administered 24 hrs post infection for 3 days measured on day 30 post infection; format: functional

SMILES: CC(C)(N)C(=O)N1CCn2c(nc(-c3ccccc3F)c2Nc2ccc(F)cc2)C1
- IC50 [1]: 1.39 µM
- IC50 [2]: 1.28 µM

SMILES: CC(C)(N)C(=O)N1CCn2c(nc(-c3ccc(F)cc3)c2Nc2cc(F)cc(F)c2)C1
- IC50 [1]: 0.22 µM
- IC50 [2]: 0.244 µM

SMILES: CC(C)(N)C(=O)N1CCn2c(nc(-c3ccc(F)cc3)c2Nc2cccnc2)C1
- IC50 [1]: 1.41 µM
- IC50 [2]: 3.32 µM

SMILES: NCC(=O)N1CCn2c(nc(-c3ccc(F)cc3)c2Nc2cccc(F)c2)C1
- IC50 [1]: 0.05 µM
- IC50 [2]: 0.034 µM

SMILES: NCC(=O)N1CCn2c(nc(-c3ccc(F)cc3)c2Nc2ccc(Cl)cc2)C1
- hepatic extraction ratio ([3]; liver microsomes): 0.55
- Papp A→B [4]: 0.44 ×10⁻⁶ cm/s
- permeability [5]: 52%
- IC50 [1]: 0.01 µM
- Papp B→A [6]: 1.25 ×10⁻⁶ cm/s
- IC50 [2]: 0.009 µM
- hepatic extraction ratio ([7]; liver microsomes): 0.63
- hepatic extraction ratio ([8]; liver microsomes): 0.17

SMILES: NCC(=O)N1CCn2c(nc(-c3ccc(F)cc3)c2Nc2ccc(F)c(F)c2)C1
- hepatic extraction ratio ([3]; liver microsomes): 0.21
- Papp A→B [4]: 0.99 ×10⁻⁶ cm/s
- IC50 [1]: 0.03 µM
- Papp B→A [6]: 2.99 ×10⁻⁶ cm/s
- IC50 [2]: 0.023 µM
- hepatic extraction ratio ([7]; liver microsomes): 0.38
- hepatic extraction ratio ([8]; liver microsomes): 0.21

SMILES: CC(C)(N)C(=O)N1CCn2c(nc(-c3ccc(F)cc3)c2Nc2ccc(Cl)c(F)c2)C1
- hepatic extraction ratio ([3]; microsomes): 0.48
- Survival [9]: 7 days
- Papp A→B [4]: 0.84 ×10⁻⁶ cm/s
- permeability [5]: 94%
- Tmax [10]: 2 h
- Vd [11]: 1.7 L/kg
- AUC(0-inf) [12]: 36.7 µM·h
- IC50 [1]: 0.04 µM
- Papp B→A [6]: 0.87 ×10⁻⁶ cm/s
- Activity [13]: 99.8%
- IC50 [2]: 0.052 µM
- Cmax [14]: 3320 nM
- IC50 [15]: 5.6 µM
- hepatic extraction ratio ([7]; microsomes): 0.67
- half-life [16]: 9.1 h
- Survival [17]: 11 days
- clearance [18]: 5.8 mL/min/kg
- hepatic extraction ratio ([8]; microsomes): 0.76
- bioavailability [19]: 24%
- half-life [20]: 7.8 h
- AUC(0-inf) [21]: 25.5 µM·h

SMILES: CC(C)(N)C(=O)N1CCn2c(nc(-c3ccc(F)cc3)c2Nc2ccc(F)cc2F)C1
- IC50 [1]: 0.11 µM
- IC50 [2]: 0.09 µM

SMILES: N[C@@H](Cc1ccccc1)C(=O)N1CCn2c(nc(-c3ccc(F)cc3)c2Nc2ccc(F)cc2)C1
- IC50 [1]: 0.11 µM
- IC50 [2]: 0.121 µM

SMILES: N[C@H](Cc1ccccc1)C(=O)N1CCn2c(nc(-c3ccc(F)cc3)c2Nc2ccc(F)cc2)C1
- IC50 [1]: 0.07 µM
- IC50 [2]: 0.059 µM

SMILES: CC(C)(N)C(=O)N1CCn2c(nc(-c3ccccc3)c2Nc2ccc(F)cc2)C1
- IC50 [1]: 0.2 µM
- IC50 [2]: 0.168 µM

SMILES: NCC(=O)N1CCn2c(nc(-c3ccc(Cl)cc3)c2Nc2ccc(F)cc2)C1
- IC50 [1]: 0.66 µM
- IC50 [2]: 0.437 µM

SMILES: COc1ccc(-c2nc3n(c2Nc2ccc(F)cc2)CCN(C(=O)CN)C3)cc1
- IC50 [1]: 2.27 µM
- IC50 [2]: 1.7 µM

SMILES: Cc1ccc(-c2nc3n(c2Nc2ccc(F)cc2)CCN(C(=O)CN)C3)cc1
- IC50 [1]: 3.14 µM
- IC50 [2]: 3.36 µM

SMILES: NCC(=O)N1CCn2c(nc(-c3cccc(F)c3)c2Nc2ccc(F)cc2)C1
- Survival [9]: 6 days
- Papp A→B [4]: 0.56 ×10⁻⁶ cm/s
- Tmax [10]: 2 h
- Vd [11]: 21.6 L/kg
- AUC(0-inf) [12]: 1.33 µM·h
- IC50 [1]: 0.01 µM
- Papp B→A [6]: 2.32 ×10⁻⁶ cm/s
- Activity [13]: 99.7%
- IC50 [2]: 0.03 µM
- Cmax [14]: 417 nM
- IC50 [15]: > 30 µM
- half-life [16]: 1 h
- Survival [17]: 10 days
- clearance [18]: 192 mL/min/kg
- hepatic extraction ratio ([8]; liver microsomes): 0.31
- bioavailability [19]: 18%
- half-life [20]: 1.8 h
- AUC(0-inf) [21]: 1.23 µM·h
- Activity [22]: 86%

SMILES: Cc1ccc(Nc2c(-c3ccc(F)c(F)c3)nc3n2CCN(C(=O)C(C)(C)N)C3)cc1
- IC50 [1]: 0.06 µM
- IC50 [2]: 0.05 µM

SMILES: CC(C)(N)C(=O)N1CCn2c(nc(-c3ccc(F)cc3)c2NC2CCCCC2)C1
- IC50 [1]: 9.61 µM
- IC50 [2]: 5.98 µM

SMILES: Fc1ccc(Nc2c(-c3ccc(F)cc3)nc3cnccn23)cc1
- IC50 [1]: > 0.01 µM
- IC50 [2]: 5.52 µM

SMILES: Fc1ccc(Nc2c(-c3ccc(F)cc3)nc3n2CCNC3)cc1
- IC50 [1]: 0.2 µM
- IC50 [2]: 0.175 µM

SMILES: NCC(=O)N1CCn2c(nc(-c3ccc(F)cc3)c2Nc2ccc(F)cc2)C1
- Papp A→B [4]: 0.7 ×10⁻⁶ cm/s
- permeability [5]: 52%
- Tmax [10]: 2 h
- Vd [11]: 12.3 L/kg
- AUC(0-inf) [12]: 0.965 µM·h
- IC50 [1]: 0.02 µM
- IC50 [2]: 0.023 µM
- Cmax [14]: 234 nM
- half-life [16]: 4.2 h
- clearance [18]: 189 mL/min/kg
- bioavailability [19]: 15%
- half-life [20]: 2.7 h
- AUC(0-inf) [21]: 1.07 µM·h

SMILES: NCCC(=O)N1CCn2c(nc(-c3ccc(F)cc3)c2Nc2ccc(F)cc2)C1
- IC50 [1]: 0.07 µM
- IC50 [2]: 0.075 µM

SMILES: C[C@H](N)C(=O)N1CCn2c(nc(-c3ccc(F)cc3)c2Nc2ccc(F)cc2)C1
- IC50 [1]: 0.09 µM
- IC50 [2]: 0.064 µM

SMILES: CC(C)[C@H](N)C(=O)N1CCn2c(nc(-c3ccc(F)cc3)c2Nc2ccc(F)cc2)C1
- IC50 [1]: 0.03 µM
- IC50 [2]: 0.024 µM

SMILES: NC(Cc1ccccc1)C(=O)N1CCn2c(nc(-c3ccccc3)c2Nc2ccc3c(c2)OCO3)C1 (racemic)
- CC50 [23]: > 10 µM
- Selectivity Index [24]: >20
- IC50 [1]: 0.235 µM
- Selectivity Index [25]: >20
- IC50 [2]: 0.271 µM

SMILES: CC(C)CC(N)C(=O)N1CCn2c(nc(-c3ccccc3)c2Nc2ccc3c(c2)OCO3)C1 (racemic)
- CC50 [23]: > 10 µM
- Selectivity Index [24]: >20
- IC50 [1]: 0.116 µM
- Selectivity Index [25]: >20
- IC50 [2]: 0.119 µM

SMILES: C[C@@H]1CC[C@H]2[C@@H](C)C(=O)O[C@@H]3O[C@@]4(C)CC[C@@H]1[C@]32OO4 [ARTEMISININ]
- IC50 [1]: 0.012 µM

SMILES: C[C@H]1[C@H](OC(=O)CCC(=O)O)O[C@@H]2O[C@@]3(C)CC[C@H]4[C@H](C)CC[C@@H]1[C@@]24OO3 [ARTESUNATE]
- Survival [9]: 7.2 days
- Activity [13]: 97%
- Survival [17]: 6.7 days
- Activity [22]: 89%

SMILES: CCN(CC)CCCC(C)Nc1ccnc2cc(Cl)ccc12 (centres undefined) [CHLOROQUINE]
- Survival [9]: 8.7 days
- Activity [13]: >99.9%
- Survival [26]: 18.8 days
- Survival [17]: 12 days

SMILES: CCc1nc(N)nc(N)c1-c1ccc(Cl)cc1 [PYRIMETHAMINE]
- IC50 [2]: > 10 µM
